Experimental data published in patent publication US20210309619A1, “ISOXAZOLIN-5-ONE DERIVATIVES AND HERBICIDES CONTAINING THE SAME AS ACTIVE INGREDIENTS” (HOKKO CHEMICAL INDUSTRY CO., LTD., priority 2018, published 2021).

Tests used:
Assay type in all cases: in vivo
Echinochloa crus-galli [1] = assay: Herbicidal effect test by treatment of rice paddy soil (Test Example 1); conditions: 120 g/10 a, treated immediately after seeding, 14 days after treatment
Protocol: (§1) Wagner pots with an area of 1/10000 ares were filled with a paddy soil, and a compound fertilizer (N:P:K=17:17:17) was mixed after water was added, followed by soil puddling. Then, Echinochloa crus-galli, broad leaf weeds (Lindernia pyxidaria and Monochoria vaginalis) and Scirpus juncoides, 30 seeds each, were sown in a depth of 0 to 1 cm. Water was poured immediately after seeding, and the water depth was kept at about 3 cm. A subsequent management was conducted in a glass greenhouse. Immediately after that, emulsions prepared using the compounds in Table 3 below according to Formulation Example 5 were diluted with water, and a certain amount of the water-diluted agent solutions were dropped. A converted amount of the applied active ingredient corresponded to 120 g per 10 ares.
(§2) This test was conducted in a double system per one agent solution concentration area, and the herbicidal rates (%) were determined by the following equation (Math. 1) 14 days after the treatment with the agents.
(§3) Herbicidal Rate (%)={1−(Average Dry Weight (g) of Plant of Treated Area)/(Average Dry Weight (g) of Plant of Untreated Area)}×100 [Math. 1]

Lindernia pyxidaria [2] = assay: as above; conditions: 120 g/10 a, treated immediately after seeding, 14 days after treatment
Protocol: as §1, §2, §3

Monochoria vaginalis [3] = assay: as above; conditions: 120 g/10 a, treated immediately after seeding, 14 days after treatment
Protocol: as §1, §2, §3

Scirpus juncoides [4] = assay: as above; conditions: 120 g/10 a, treated immediately after seeding, 14 days after treatment
Protocol: as §1, §2, §3

Echinochloa crus-galli [5] = assay: Herbicidal effect test by treatment during growing period in paddy rice cultivation (Test Example 2); conditions: 120 g/10 a, treated seven days after seeding, 14 days after treatment
Text: as §3
as §1, with “after addition of water,” for “after water was added,”, “greenhouse. Emulsions” for “greenhouse. Immediately after that, emulsions”, “Table 4” for “Table 3”, “with water seven days after seeding,” for “with water,”, “ares. The test was conducted in a double system per one agent solution concentration area, and the herbicidal rates (%) were determined by the equation (Math. 1) 14 days after the treatment with the agents. In this regard, the compound numbers in Table 4 are the same as those in Table 1 and Table 2 above.” for “ares.”

Lindernia pyxidaria [6] = assay: as above; conditions: 120 g/10 a, treated seven days after seeding, 14 days after treatment
Text: as §3
as §1, with “after addition of water,” for “after water was added,”, “greenhouse. Emulsions” for “greenhouse. Immediately after that, emulsions”, “Table 4” for “Table 3”, “with water seven days after seeding,” for “with water,”, “ares. The test was conducted in a double system per one agent solution concentration area, and the herbicidal rates (%) were determined by the equation (Math. 1) 14 days after the treatment with the agents. In this regard, the compound numbers in Table 4 are the same as those in Table 1 and Table 2 above.” for “ares.”

Monochoria vaginalis [7] = assay: as above; conditions: 120 g/10 a, treated seven days after seeding, 14 days after treatment
Text: as §3
as §1, with “after addition of water,” for “after water was added,”, “greenhouse. Emulsions” for “greenhouse. Immediately after that, emulsions”, “Table 4” for “Table 3”, “with water seven days after seeding,” for “with water,”, “ares. The test was conducted in a double system per one agent solution concentration area, and the herbicidal rates (%) were determined by the equation (Math. 1) 14 days after the treatment with the agents. In this regard, the compound numbers in Table 4 are the same as those in Table 1 and Table 2 above.” for “ares.”

Scirpus juncoides [8] = assay: as above; conditions: 120 g/10 a, treated seven days after seeding, 14 days after treatment
Text: as §3
as §1, with “after addition of water,” for “after water was added,”, “greenhouse. Emulsions” for “greenhouse. Immediately after that, emulsions”, “Table 4” for “Table 3”, “with water seven days after seeding,” for “with water,”, “ares. The test was conducted in a double system per one agent solution concentration area, and the herbicidal rates (%) were determined by the equation (Math. 1) 14 days after the treatment with the agents. In this regard, the compound numbers in Table 4 are the same as those in Table 1 and Table 2 above.” for “ares.”

Amaranthus viridis [9] = assay: Herbicidal effect test by treatment of dry field farming soil (Test Example 3); conditions: 120 g/10 a, sprayed one day after seeding, 14 days after treatment
Text: (§4) Herbicidal Rate (%)={1−(Average Dry Weight (g) of Plant of Treated Area)/(Average Dry Weight (g) of Plant of Untreated Area)}×100 [Math. 1] Pots with a size of 36 cm^2 were filled with a dry field farming soil (alluvium). The soil of the top layer of 1 cm and seeds of weeds, namely southern crabgrass, Echinochloa crus-galli, Chenopodium album and Amaranthus viridis, 20 seeds each, were evenly mixed, and the top layer was gently pressed. Emulsions prepared using the compounds in Table 5 below according to Formulation Example 5 were diluted with water one day after seeding, and the water-diluted agent solutions were sprayed to the soil surfaces at a ratio of 100 liters per 10 ares. A converted amount of the applied active ingredient corresponded to 120 g per 10 ares. The herbicidal effects were evaluated by the same standard as that in Test Example 1, 14 days after the treatment with the agents. In this regard, the compound numbers in Table 5 are the same as those in Table 1 and Table 2 above.

Chenopodium album [10] = assay: as above; conditions: 120 g/10 a, sprayed one day after seeding, 14 days after treatment
Text: as §4

Echinochloa crus-galli [11] = assay: as above; conditions: 120 g/10 a, sprayed one day after seeding, 14 days after treatment
Text: as §4

southern crabgrass [12] = assay: as above; conditions: 120 g/10 a, sprayed one day after seeding, 14 days after treatment
Text: as §4

Amaranthus viridis [13] = assay: Herbicidal effect test by treatment of stem and leaf in dry field farming (Test Example 4); conditions: 120 g/10 a, stem and leaf treatment seven days after seeding, 14 days after treatment
Text: as §4, with “Table 6” for “Table 5”, “water seven days” for “water one day”

Chenopodium album [14] = assay: as above; conditions: 120 g/10 a, stem and leaf treatment seven days after seeding, 14 days after treatment
Text: as §4, with “Table 6” for “Table 5”, “water seven days” for “water one day”

Echinochloa crus-galli [15] = assay: as above; conditions: 120 g/10 a, stem and leaf treatment seven days after seeding, 14 days after treatment
Text: as §4, with “Table 6” for “Table 5”, “water seven days” for “water one day”

southern crabgrass [16] = assay: as above; conditions: 120 g/10 a, stem and leaf treatment seven days after seeding, 14 days after treatment
Text: as §4, with “Table 6” for “Table 5”, “water seven days” for “water one day”

| Compound | Herbicidal rate, Echinochloa crus-galli (Echinochloa crus-galli [1]) | Herbicidal rate, Lindernia pyxidaria (Lindernia pyxidaria [2]) | Herbicidal rate, Monochoria vaginalis (Monochoria vaginalis [3]) | Herbicidal rate, Scirpus juncoides (Scirpus juncoides [4]) | Herbicidal rate, Echinochloa crus-galli (Echinochloa crus-galli [5]) | Herbicidal rate, Lindernia pyxidaria (Lindernia pyxidaria [6]) | Herbicidal rate, Monochoria vaginalis (Monochoria vaginalis [7]) | Herbicidal rate, Scirpus juncoides (Scirpus juncoides [8]) | Herbicidal rate, Amaranthus viridis (Amaranthus viridis [9]) | Herbicidal rate, Chenopodium album (Chenopodium album [10]) | Herbicidal rate, Echinochloa crus-galli (Echinochloa crus-galli [11]) | Herbicidal rate, southern crabgrass (southern crabgrass [12]) | Herbicidal rate, Amaranthus viridis (Amaranthus viridis [13]) | Herbicidal rate, Chenopodium album (Chenopodium album [14]) | Herbicidal rate, Echinochloa crus-galli (Echinochloa crus-galli [15]) | Herbicidal rate, southern crabgrass (southern crabgrass [16]) |
| --- | --- | --- | --- | --- | --- | --- | --- | --- | --- | --- | --- | --- | --- | --- | --- | --- |
| COC1CCCC1n1oc(=O)c(Cc2ccccc2N(C(=O)OC(C)C)S(=O)(=O)C(F)(F)F)c1C (stereo not drawn) [Compound 212] | 100% | 100% | 100% | 100% | 100% | 80% | 90% | 90% | 60% | 60% | 90% | 90% | 90% | 90% | 90% | 80% |
| COC1CCCC1n1oc(=O)c(Cc2ccccc2N(C(=O)OCC(C)C)S(=O)(=O)C(F)(F)F)c1C (stereo not drawn) [Compound 248] | 100% | 100% | 100% | 100% | 100% | 80% | 90% | 90% | 60% | 60% | 90% | 90% | 90% | 90% | 90% | 80% |
| COC1CCCCC1n1oc(=O)c(Cc2ccccc2N(C(=O)OCC(C)C)S(=O)(=O)C(F)(F)F)c1C (stereo not drawn) [Compound 250] | 100% | 100% | 100% | 100% | 100% | 90% | 90% | 90% | 90% | 60% | 90% | 90% | 90% | 90% | 90% | 90% |
| COC1CCCC1n1oc(=O)c(Cc2ccccc2N(C(=O)Oc2ccccc2)S(=O)(=O)C(F)(F)F)c1C (stereo not drawn) [Compound 286] | 100% | 100% | 100% | 100% | 100% | 80% | 90% | 90% | 60% | 60% | 90% | 90% | 90% | 90% | 90% | 80% |
| COC1CCCC1n1oc(=O)c(Cc2ccccc2N(S(=O)(=O)C(F)(F)F)S(=O)(=O)C(F)(F)F)c1C (stereo not drawn) [Compound 349, 1,1,1-trifluoro-N-[2-[[(2-methoxycyclopentyl)-3-methyl-5-oxoisoxazol-4-yl]methyl]phenyl]-N-(trifluoromethylsulfonyl)methanesulfonamide] | 100% | 100% | 100% | 90% | 100% | 80% | 80% | 90% | 90% | 60% | 90% | 90% | 80% | 80% | 90% | 80% |
| COC1CCCCC1n1oc(=O)c(Cc2ccccc2N(S(=O)(=O)C(F)(F)F)S(=O)(=O)C(F)(F)F)c1C (stereo not drawn) [Compound 351, 1,1,1-trifluoro-N-[2-[[(2-methoxycyclohexyl)-3-methyl-5-oxoisoxazol-4-yl]methyl]phenyl]-N-(trifluoromethylsulfonyl)methanesulfonamide] | 100% | 100% | 100% | 90% | 100% | 80% | 80% | 90% | 90% | 60% | 90% | 90% | 80% | 80% | 90% | 80% |
